Results taken from patent EP4810052A2, “HCRHR2 SELECTIVE POLYPEPTIDES” (Gubra A/S, priority 2023, dated 2026).
Read-outs that look alike come from different tables or passages of the source. Starred links: 1 amine or outer side, 2 acyl side, 3 side chain; linkers in the order of their positions; H or OH if unused. Non-standard residues stand in square brackets, D forms with d. Residues, ends and D or L forms follow the SMILES beside them. Groups on a side chain read outwards from the residue. *: point of attachment. C20 diacid = O=C(O)CCCCCCCCCCCCCCCCCCC(=O)*; γGlu = O=C(O)[C@H](CCC(=O)[*:2])N[*:1]; NMeI = CC[C@H](C)[C@H](NC)C(=O)O; Nle = CCCC[C@H](N)C(=O)O; AEEA = NCCOCCOCC(=O)O; Aib = CC(C)(N)C(=O)O

Tests used:
PK in minipigs = conditions: male, Göttingen, minipig, in vivo; for half-life: read-out: T½ (converted); for bioavailability / Cmax / Tmax: sc; for Cmax / Tmax: 6.0 nmol/kg s.c
Experimental: Pharmacokinetics studies were determined in male Göttingen minipigs from Ellegaard Göttingen Minipigs A/S. Animals were acclimatised for at least 7 days before placed on study. The minipigs had prior to study been surgically implanted with central venous catheters inserted which were used for blood sampling. Animals were housed under a 12/12 h dark-light cycle with ad libitum access to domestic water and animals were fed a commercially standard maintenance diet twice daily.
Test compounds where administrated either as a cassette or as a single compound. Test compounds were administrated by a single intravenous injection or short infusion (5-10 min) through the implanted catheter or a single subcutaneously injection. The subcutaneously injection was given in the mid neck between ear and scapula with a stopper on the needle, allowing 0.5 cm of the needle to be inserted.Plasma concentration-time profiles employing 12-16 sampling points were obtained from each animal. As an example, blood samples were collected on the following times: 0 (predose), 0.17, 0.33, 0.5, 1, 2, 5, 6, 24, 48, 72, 92, 168, 240 and 336 hrs post administration. Approximately 2 mL blood was drawn from the central catheter from each animal at each sampling point. Blood samples were taken in K2 or K3 EDTA tubes. Blood was kept on ice for maximum 30 min before centrifugation (10 min, 4°C, 2000 x g). Approximately 200 µL plasma samples was transferred to a Micronic tube and stored at -20° or lower.
Pharmacokinetics parameters were calculated by non-compartmental analysis (NCA) of the individual plasma concentrations-time profile from the animals. The log-linear trapezoidal method was used for estimation of AUC and AUMC. The terminal T½ was determined as In(2)/λz where λz is the first order rate constant as determined by the terminal log-linear part of the curve.
Plasma concentrations were measured by LC-MSMS using electrospray ionization and multiple reaction monitoring. Calibration standards and quality control (QC) samples were prepared in specie match matrix. 15 µL calibration standards, QC and study samples were extracted by protein precipitation using 60 µL methanol followed by addition of 45 µL milliQ water. Samples were shaken (800 rpm) at room temperature for 5 min before centrifugation (2570×g, 40 min, 4°C) and the supernatant was transferred to a LoBind PCR plate. Samples were analysed on a Thermo Triscend UHPLC system coupled to a Sciex API 6500+ mass spectrometer. Samples were subject to online SPE clean-up on a HLB column (1×50 mm, Waters) before loaded onto a Aeris Peptide XB C18 column (3.6 µm, 100 Å, 2×50 mm, Phenomenex) analytical column. The mobile phases consisted of acetonitrile and milliQ H2O both containing 0.1% V/V formic acid. The flow rate was 0.60 mL/min and the column was kept at room temperature.

hCRHR2a = biological target: T1, hCRHR2a (Homo sapiens, UniProt Q13324); assay: cAMP potency, transiently transfected CHO-K1 cells, hCRHR2a; assay type: cell-based; conditions: transiently transfected CHO-K1, average n=3; read-out: Transient cell system EC50 (nM) hCRHR 2a
T1 construct: DYK (FLAG); host or cells: CHO-K1, transiently transfected
T1 sequence (Q13324 1-411): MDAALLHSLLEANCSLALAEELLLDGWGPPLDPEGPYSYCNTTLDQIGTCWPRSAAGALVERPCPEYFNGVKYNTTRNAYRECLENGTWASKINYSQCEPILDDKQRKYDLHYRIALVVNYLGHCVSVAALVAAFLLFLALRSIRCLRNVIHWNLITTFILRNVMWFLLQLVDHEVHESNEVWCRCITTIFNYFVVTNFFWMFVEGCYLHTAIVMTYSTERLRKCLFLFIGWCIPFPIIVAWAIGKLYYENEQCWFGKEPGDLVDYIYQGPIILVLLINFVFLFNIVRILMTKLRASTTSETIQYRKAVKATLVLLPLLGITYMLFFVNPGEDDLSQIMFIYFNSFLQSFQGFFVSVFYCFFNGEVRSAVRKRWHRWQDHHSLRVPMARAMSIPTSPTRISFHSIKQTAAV

hCRHR2b = biological target: T2, hCRHR2b (Homo sapiens, UniProt Q13324); assay: cAMP potency, transiently transfected CHO-K1 cells, hCRHR2b; assay type: cell-based; conditions: transiently transfected CHO-K1, average n=3; read-out: Transient cell system EC50 (nM) hCRHR 2b
T2 construct: DYK (FLAG); host or cells: CHO-K1, transiently transfected
T2 sequence (Q13324 1-438 isoform Q13324-2): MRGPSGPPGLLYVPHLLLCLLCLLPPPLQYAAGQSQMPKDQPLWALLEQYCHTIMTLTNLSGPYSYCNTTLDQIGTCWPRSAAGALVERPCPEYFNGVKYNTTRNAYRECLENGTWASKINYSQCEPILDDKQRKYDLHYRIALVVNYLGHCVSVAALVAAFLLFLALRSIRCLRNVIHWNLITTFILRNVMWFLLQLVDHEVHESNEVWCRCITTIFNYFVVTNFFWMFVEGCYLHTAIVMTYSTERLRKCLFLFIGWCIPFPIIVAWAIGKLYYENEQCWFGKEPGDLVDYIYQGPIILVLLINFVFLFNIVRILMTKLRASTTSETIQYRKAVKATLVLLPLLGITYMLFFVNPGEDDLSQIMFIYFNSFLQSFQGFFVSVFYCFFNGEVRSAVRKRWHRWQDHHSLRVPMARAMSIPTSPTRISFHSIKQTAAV

mCRHR2 = biological target: T3, mCRHR2 (Mus musculus, UniProt Q60748); assay: cAMP potency, transiently transfected CHO-K1 cells, mCRHR2; assay type: cell-based; conditions: transiently transfected CHO-K1, average n=3; read-out: Transient cell system EC50 (nM) mCRH R2
T3 construct: DYK (FLAG); host or cells: CHO-K1, transiently transfected
T3 sequence (Q60748 1-431 isoform Q60748-2): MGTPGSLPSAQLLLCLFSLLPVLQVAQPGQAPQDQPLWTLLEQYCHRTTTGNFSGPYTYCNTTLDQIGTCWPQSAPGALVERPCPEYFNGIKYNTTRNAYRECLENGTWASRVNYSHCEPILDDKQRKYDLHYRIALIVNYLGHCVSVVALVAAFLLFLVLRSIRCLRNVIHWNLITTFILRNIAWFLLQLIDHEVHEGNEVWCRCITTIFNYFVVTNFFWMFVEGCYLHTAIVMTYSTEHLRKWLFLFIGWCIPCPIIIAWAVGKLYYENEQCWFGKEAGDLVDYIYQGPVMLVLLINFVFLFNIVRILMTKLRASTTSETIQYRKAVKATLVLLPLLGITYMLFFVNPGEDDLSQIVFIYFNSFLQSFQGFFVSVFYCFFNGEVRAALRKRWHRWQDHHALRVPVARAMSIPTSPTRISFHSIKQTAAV
Experimental: (§1) Selected peptides were tested for potency on different species (mouse, rat, porcine) using transiently transfected CHO-K1 cells using the general procedure.

rCRHR2 = biological target: T4, rCRHR2 (Rattus norvegicus, UniProt P47866); assay: cAMP potency, transiently transfected CHO-K1 cells, rCRHR2; assay type: cell-based; conditions: transiently transfected CHO-K1, average n=3; read-out: Transient cell system EC50 (nM) rCRHR 2
T4 construct: DYK (FLAG); host or cells: CHO-K1, transiently transfected
T4 sequence (P47866 whole entry): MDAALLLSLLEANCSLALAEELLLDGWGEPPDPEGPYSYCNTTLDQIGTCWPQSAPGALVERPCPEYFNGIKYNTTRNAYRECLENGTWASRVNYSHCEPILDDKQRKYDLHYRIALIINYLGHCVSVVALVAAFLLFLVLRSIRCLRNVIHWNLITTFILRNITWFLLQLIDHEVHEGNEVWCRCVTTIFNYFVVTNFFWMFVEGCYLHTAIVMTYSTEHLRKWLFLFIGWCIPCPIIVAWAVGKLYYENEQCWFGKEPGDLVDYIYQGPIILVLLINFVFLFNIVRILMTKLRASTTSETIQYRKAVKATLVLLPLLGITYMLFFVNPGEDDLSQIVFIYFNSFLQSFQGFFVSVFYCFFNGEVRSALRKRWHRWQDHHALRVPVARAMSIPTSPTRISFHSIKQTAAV
Experimental: as §1

pCRHR1 = assay: cAMP potency, transiently transfected CHO-K1 cells, pCRHR1; assay type: cell-based, pig; conditions: transiently transfected CHO-K1, average n=3; read-out: Transient cell system EC50 (nM) pCRHR 1
Experimental: as §1

pCRHR2 = assay: cAMP potency, transiently transfected CHO-K1 cells, pCRHR2; assay type: cell-based, pig; conditions: transiently transfected CHO-K1, average n=3; read-out: Transient cell system EC50 (nM) pCR HR2
Experimental: as §1

SMILES | clearance (PK in minipigs; iv, Pig, 4.2 nmol/kg i.v.) | half-life (PK in minipigs; iv, Pig, 4.2 nmol/kg i.v.) | bioavailability (PK in minipigs) | Cmax (PK in minipigs; Pig) | Tmax (PK in minipigs; Pig) | EC50 (hCRHR2a) | EC50 (hCRHR2b) | EC50 (mCRHR2) | EC50 (rCRHR2) | EC50 (pCRHR1) | EC50 (pCRHR2) | half-life (PK in minipigs; iv, Pig, 6.0 nmol/kg i.v.)
CCCC[C@H](NC(=O)[C@@H](NC(=O)[C@H](CCC(=O)O)NC(=O)C(C)(C)NC(=O)[C@H](CC(N)=O)NC(=O)[C@@H](NC(=O)[C@H](CCCCNC(=O)COCCOCCNC(=O)COCCOCCNC(=O)CC[C@H](NC(=O)CC[C@H](NC(=O)CCCCCCCCCCCCCCCCCCC(=O)O)C(=O)O)C(=O)O)NC(=O)[C@H](C)NC(=O)[C@H](CCC(N)=O)NC(=O)[C@H](CCC(=O)O)NC(=O)[C@H](CCCNC(=N)N)NC(=O)[C@H](C)NC(=O)[C@H](C)NC(=O)[C@H](CCCNC(=N)N)NC(=O)[C@H](C)NC(=O)[C@H](CCCNC(=N)N)NC(=O)[C@H](C)NC(=O)[C@H](CCC(N)=O)NC(=O)[C@H](CO)NC(=O)[C@H](CC(C)C)NC(=O)[C@H](CC(C)C)NC(=O)[C@@H](NC(=O)[C@H](CCC(N)=O)NC(=O)[C@H](CC(C)C)NC(=O)[C@H](CC(C)C)NC(=O)CNC(=O)[C@@H](NC(=O)[C@@H]1CCCN1C(=O)[C@@H](NC(=O)[C@H](CC(=O)O)NC(=O)[C@H](CC(C)C)NC(=O)[C@H](CO)NC(=O)[C@H](CC(C)C)NC(=O)[C@@H](NC(=O)[C@@H](NC)[C@@H](C)CC)C(C)C)C(C)C)[C@@H](C)CC)[C@@H](C)CC)[C@@H](C)O)[C@@H](C)CC)C(=O)N[C@@H](C)C(=O)N[C@@H](CCC(=O)O)C(=O)N[C@H](C(N)=O)C(C)C [SEQ ID NO: 215] (H-[NMeI]VLSLDVPIGLLQILLSQARARAAREQAK([AEEA-AEEA-γGlu-γGlu-C20 diacid])TN[Aib]EI[Nle]AEV-NH2) | 7.2 mL/day/kg | 156 h | 68% | 0.038 µM | 24 h | 0.013 nM | 0.016 nM | 0.004 nM | 0.072 nM | > 1000 nM | 0.017 nM | 
CC[C@H](C)[C@H](NC)C(=O)N[C@H](C(=O)N[C@@H](CC(C)C)C(=O)N[C@@H](CO)C(=O)N[C@@H](CC(C)C)C(=O)N[C@@H](CC(=O)O)C(=O)N[C@H](C(=O)N1CCC[C@H]1C(=O)N[C@H](C(=O)NCC(=O)N[C@@H](CC(C)C)C(=O)N[C@@H](CC(C)C)C(=O)N[C@@H](CCC(N)=O)C(=O)N[C@H](C(=O)N[C@@H](CC(C)C)C(=O)N[C@@H](CC(C)C)C(=O)N[C@@H](CCC(=O)O)C(=O)N[C@@H](CCC(N)=O)C(=O)N[C@@H](C)C(=O)N[C@@H](CCCNC(=N)N)C(=O)N[C@@H](C)C(=O)N[C@@H](CCCNC(=N)N)C(=O)N[C@@H](C)C(=O)N[C@@H](C)C(=O)N[C@@H](CCCNC(=N)N)C(=O)N[C@@H](CCC(=O)O)C(=O)N[C@@H](CCC(N)=O)C(=O)N[C@@H](C)C(=O)N[C@H](C(=O)N[C@@H](CCCCNC(=O)COCCOCCNC(=O)COCCOCCNC(=O)CC[C@H](NC(=O)CC[C@H](NC(=O)CCCCCCCCCCCCCCCCCCC(=O)O)C(=O)O)C(=O)O)C(=O)N[C@@H](CC(N)=O)C(=O)N[C@@H](C)C(=O)N[C@@H](CCC(=O)O)C(=O)N[C@H](C(=O)N[C@@H](CC(C)C)C(=O)N[C@@H](C)C(=O)N[C@@H](CCC(=O)O)C(=O)N[C@H](C(N)=O)C(C)C)[C@@H](C)CC)[C@@H](C)O)[C@@H](C)CC)[C@@H](C)CC)C(C)C)C(C)C [SEQ ID NO: 6] (H-[NMeI]VLSLDVPIGLLQILLEQARARAAREQATK([AEEA-AEEA-γGlu-γGlu-C20 diacid])NAEILAEV-NH2) |  |  |  |  |  | 0.023 nM | 0.015 nM | 0.0043 nM | 0.13 nM | > 5000 nM | 0.03 nM | 145 h
CC[C@H](C)[C@H](N)C(=O)N[C@H](C(=O)N[C@@H](CC(C)C)C(=O)N[C@@H](CO)C(=O)N[C@@H](CC(C)C)C(=O)N[C@@H](CC(=O)O)C(=O)N[C@H](C(=O)N1CCC[C@H]1C(=O)N[C@H](C(=O)NCC(=O)N[C@@H](CC(C)C)C(=O)N[C@@H](CC(C)C)C(=O)N[C@@H](CCC(N)=O)C(=O)N[C@H](C(=O)N[C@@H](CC(C)C)C(=O)N[C@@H](CC(C)C)C(=O)N[C@@H](CCC(=O)O)C(=O)N[C@@H](CCC(N)=O)C(=O)N[C@@H](C)C(=O)N[C@@H](CCCNC(=N)N)C(=O)N[C@@H](C)C(=O)N[C@@H](CCCNC(=N)N)C(=O)N[C@@H](C)C(=O)N[C@@H](C)C(=O)N[C@@H](CCCNC(=N)N)C(=O)N[C@@H](CCC(=O)O)C(=O)N[C@@H](CCC(N)=O)C(=O)N[C@@H](C)C(=O)N[C@@H](CCCCNC(=O)COCCOCCNC(=O)COCCOCCNC(=O)CC[C@H](NC(=O)CC[C@H](NC(=O)CCCCCCCCCCCCCCCCCCC(=O)O)C(=O)O)C(=O)O)C(=O)N[C@H](C(=O)N[C@@H](CC(N)=O)C(=O)N[C@@H](C)C(=O)N[C@@H](CCC(=O)O)C(=O)N[C@H](C(=O)N[C@@H](CC(C)C)C(=O)N[C@@H](C)C(=O)N[C@@H](CCC(=O)O)C(=O)N[C@H](C(N)=O)C(C)C)[C@@H](C)CC)[C@@H](C)O)[C@@H](C)CC)[C@@H](C)CC)C(C)C)C(C)C [SEQ ID NO: 3] (H-IVLSLDVPIGLLQILLEQARARAAREQAK([AEEA-AEEA-γGlu-γGlu-C20 diacid])TNAEILAEV-NH2) |  |  | 55% | 0.06 µM | 24 h | 0.016 nM | 0.0081 nM | 0.0054 nM | 0.07 nM | > 5000 nM | 0.027 nM | 156 h
